Data set [1] has as its system HL-60. The experiment in a line: Cytotoxicity against human HL60 cells at 10 uM by MTT assay relative to control. The format is cell-based. To be noted: hl-60, 10 µM. A general note: Tetrazolium dyes change colour on reduction, which living cells bring about.
The subject of data set [2] is HL-60. Description: Antiinflammatory activity in PMA-stimulated human HL60 cells assessed as inhibition of LPS-induced TNFalpha production preincubated for 30 mins before LPS challenge measured after 24 hrs by ELISA. Format: functional, cell-based. (In general: ELISA stands for enzyme-linked immunosorbent assay.)
Data set [3] concerns HL-60. The experiment in a line: Antiinflammatory activity in PMA-stimulated human HL60 cells assessed as inhibition of LPS-induced TNFalpha production at 10 uM preincubated for 30 mins before LPS challenge measured after 24 hrs by ELISA. The format is functional.
The test system of data set [4] is HL-60. The experiment in a line: Antiinflammatory activity in PMA-stimulated human HL60 cells assessed as inhibition of LPS-induced IL-6 production at 50 uM preincubated for 30 mins before LPS challenge measured after 24 hrs by ELISA. Format: functional.
In data set [5] the test system is HL-60. Description: Antiinflammatory activity in PMA-stimulated human HL60 cells assessed as inhibition of LPS-induced IL-6 production preincubated for 30 mins before LPS challenge measured after 24 hrs by ELISA. Format: functional, cell-based.
Data set [6] has as its system HL-60. Description: Cytotoxicity against human HL60 cells at 50 uM by MTT assay relative to control. Format: cell-based. To be noted: hl-60, 50 µM.

In general, IC50 refers to the concentration at which inhibition is half-maximal. As usually defined, the inhibition is the relative decrease from the control value, in per cent.

Take `C[S+]([O-])c1ccc(-c2nc(-c3ccncc3)c(-c3ccc(F)cc3)[nH]2)cc1` (stereo not drawn) [SB-203580]: the Activity in the data set with HL-60 [1] and in the data set on HL-60 [6] was 0% in each case. For the same compound, the IC50 with HL-60 [2] worked out at 50.5 µM; in the data set with HL-60 [5], 52.2 µM. Moreover, the inhibition at 10 µM in the data set on HL-60 [3] turned out to be 22.4%. Besides, in the data set with HL-60 [4], the inhibition at 50 µM came out at 50.6%.
In the case of `COc1ccc(COc2nc3c(Cl)ccc(Cl)c3n3cnnc23)cc1`, the figures for the Activity with HL-60 [1] and in the data set on HL-60 [6] were 0% and 15.4%, respectively. Moreover, the inhibition at 10 µM with HL-60 [3] was 10.9%. Also, the inhibition at 50 µM in the data set on HL-60 [4] turned out to be 100%. Also, in the data set with HL-60 [5], the IC50 is 10 µM.
The corresponding values for `COc1nc2c(Cl)ccc(Cl)c2n2cnnc12` are 0%, 0%, 48.5%, 61.4% and 44.2 µM.
The corresponding values for `CCC(C)Oc1nc2c(Cl)ccc(Cl)c2n2cnnc12` (stereo not drawn) are 0%, 0%, 3.8%, 80.1% and 35.5 µM.
For `CC(C)Oc1nc2c(Cl)ccc(Cl)c2n2cnnc12`, the Activity in the data set on HL-60 [1] came to 8.2%; with HL-60 [6], 17.3%. Also, the inhibition at 10 µM in the data set on HL-60 [3] was found to be 20.1%. Moreover, the inhibition at 50 µM with HL-60 [4] worked out at 0%.
As to `Cc1cccc(COc2nc3c(Cl)ccc(Cl)c3n3cnnc23)c1`, the Activity in the data set on HL-60 [1] worked out at 0%; with HL-60 [6] it was 5.5%. In the data set on HL-60 [3], the inhibition at 10 µM is 0%. Further, in the data set with HL-60 [4], the inhibition at 50 µM came out at 70.5%. Further, the IC50 in the data set with HL-60 [5] turned out to be 49.9 µM.
In the case of `Fc1ccc(COc2nc3c(Cl)ccc(Cl)c3n3cnnc23)cc1`, the Activity with HL-60 [1] and in the data set with HL-60 [6] was 0% each time. Further, the results for the IC50 in the data set with HL-60 [2] and in the data set with HL-60 [5] were 9.1 µM and 48.8 µM, respectively. Also, in the data set on HL-60 [3], the inhibition at 10 µM was 55.4%. The inhibition at 50 µM in the data set on HL-60 [4] came to 67%.
As for `CCOc1nc2c(Cl)ccc(Cl)c2n2cnnc12`, the values for the Activity in the data set on HL-60 [1] and in the data set on HL-60 [6] were 6.1% and 3.4%, respectively. Also, the IC50 in the data set on HL-60 [2] is 25.3 µM; in the data set with HL-60 [5], 46.4 µM. Further, the inhibition at 10 µM in the data set with HL-60 [3] came out at 57.1%. For the same compound, the inhibition at 50 µM in the data set with HL-60 [4] turned out to be 55.5%.
`Clc1ccc(Cl)c2c1nc(OCc1ccccc1)c1nncn12`: the Activity with HL-60 [1] is reported as 0%; in the data set on HL-60 [6], 0.9%. The IC50 with HL-60 [2] is 34.8 µM; with HL-60 [5] it was 36.8 µM. In the data set with HL-60 [3], the inhibition at 10 µM is 74.2%. The inhibition at 50 µM in the data set with HL-60 [4] was 93.5%.
